Test results as given in patent publication US9352015B2, “Antimicrobial peptides” (priority 2009, dated 2016).
Values after ≈ are worked out from the molar mass of the structure shown. Values joined by “and” are separate entries in the source; they are usually repeats but may differ in a detail not shown here. Equal values may be shown once. Read-outs that look alike come from different tables or passages of the source.

Key:
Acinetobacter baumannii = type: cell-based
Method: (§1) Minimal inhibitory concentrations (MICs) are determined using a standard microtiter dilution method, with 3 sets of determinations, in LB (Luria-Bertani) no-salt medium (10 g of tryptone and 5 g of yeast extract per liter). In some cases, Mueller Hinton (MH) medium or Brain Heart Infusion (BHI) medium is used.
(§2) Briefly, cells were grown overnight at 37° C. in LB and diluted in the same medium. Serial dilutions of the peptides are added to the microtiter plates in a volume of 100 μl followed by 10 μl of bacteria to give a final inoculum of 5×10^5 colony-forming units/ml. Plates are incubated at 37° C. for 24 hours and MICs determined as the lowest peptide concentration that inhibited growth. Alternatively, minimal inhibitory concentrations are determined using a standard microtiter dilution method in a Mueller-Hinton (MH) medium. Briefly, cells are grown overnight at 37° C. in MH broth and diluted in the same medium. In some cases, serial dilutions of the peptides are added to the microtiter plates in a volume of 100 μl followed by 10 μl of bacteria to give a final inoculum of 1×10^5 colony-forming units/ml. Plates are incubated at 37° C. for 24 hours and MICs are determined as the lowest peptide concentration that inhibited growth.
The biological activities of these six peptide analogs was determined against 11 clinical isolated of Acinetobacter baumannii (Table 9). Please note that the activities are reported in micromolar rather than microgram/ml. This allows a direct comparison on a molar basis with the effectiveness of molecules of different molecular weights whether peptides disclosed herein or antibiotics which in general are smaller in molecular mass. […] These are the highest antimicrobial activities observed in studies of antimicrobial peptides derived by modifying the peptide sequence of SEQ ID NO:24 (D1). D22 has the best hemolytic activity of the six analogs (D17-D22) and a therapeutic index of […] compared to […] for D1 (Table 9). D22 has no apparent advantage over D1 as determined in these experiments.

[1] = RP-HPLC retention as measure of overall peptide hydrophobicity; type: physicochemical; conditions: pH 2, room temperature
Method: Crude and purified peptides were analyzed on an Agilent 1100 series liquid chromatograph (Little Falls, Del.). Runs were performed on a Zorbax 300 SB-C8 column (150×2.1 mm I.D.; 5 μm particle size, 300 Å pore size) from Agilent Technologies using linear AB gradient (1% acetonitrile/min) and a flow rate of 0.25 ml/min, where eluant A was 0.2% aqueous TFA, pH 2 and eluant B was 0.2% TFA in acetonitrile.

[2] = Hemolytic activity against human erythrocytes (HC50 / MHC, microtiter dilution); type: cell-based; conditions: human, 1% human erythrocytes, pH 7.4
Method: Hemoglobin release was determined spectrophotometrically at 570 nm. The hemolytic activity was determined as the peptide concentration that caused 50% hemolysis of erythrocytes after 18 h (HC50). […] HC50 was determined by a plot of peptide concentration versus percent lysis.

[3] = RP-HPLC temperature profiling (peptide self-association parameter PA); type: physicochemical; conditions: RP-HPLC temperature profiling 5-80° C., pH 2, relative to control peptide C
Method: Temperature profiling analyses were performed on the same column in 3° C. increments, from 5° C. to 80° C., using a linear AB gradient of 0.5% acetonitrile/min, as described previously (30, 53, 92, 93).
Peptide self-association (i.e., the ability to oligomerize/dimerize) in aqueous solution is a very important parameter for antimicrobial activity (53, 92, 93). Without wishing to be bound by any particular theory, the present inventors postulated that monomeric random-coil antimicrobial peptides are best suited to pass through the capsule and cell wall of microorganisms prior to penetration into the cytoplasmic membrane, induction of α-helical structure and disruption of membrane structure to kill target cells (93). Thus, if the self-association ability of a peptide in aqueous media is too strong (e.g., forming stable folded dimers through interaction of their non-polar faces) this could decrease the ability of the peptide to dissociate to monomer, in addition oligomerization of the peptide can prevent it from effectively passing through the capsule and cell wall to reach the membrane. The ability of the peptides in the present study to self-associate was determined by the technique of RP-HPLC temperature profiling at pH 2 (29, 30, 38). The reason pH 2 is used to determine self-association of cationic AMPs is that highly positively charged peptides are frequently not eluted from reversed-phase columns at pH 7 due to non-specific binding to negatively charged silanols on the column matrix. This is not a problem at pH 2 since the silanols are protonated (i.e., neutral) and non-specific electrostatic interactions are eliminated. At pH 2, the interactions between the peptide and the reversed-phase matrix involve ideal retention behavior, i.e., only hydrophobic interactions between the preferred binding domain (nonpolar face) of the amphipathic molecule and the hydrophobic surface of the column matrix are present (39). […] Control peptide C is a monomeric random coil peptide in both aqueous and hydrophobic media; thus, its linear decrease in peptide retention behavior with increasing temperature within the range of 5° C. to 80° C. represents only the general effects of temperature due to greater solute diffusivity and enhanced mass transfer between the stationary and mobile phase at higher temperatures (55). To allow for these general temperature effects, the data for the control peptide was subtracted from each temperature profile as shown in FIG. 2B. Thus, the peptide self-association parameter, PA, represents the maximum change in peptide retention time relative to the random coil peptide C. Note that the higher the PA value, the greater the self-association.

Pseudomonas aeruginosa = conditions: for MIC PAO 1: 37° C., 24 h, strain PAO1; for MIC GM (geometric mean of the MIC values): six P. aeruginosa strains; for MIC CP 204: strain CP204; for MIC M 2: strain M2; for MIC PA 14: strain PA14; for MIC PAK: strain PAK; for MIC WR 5: strain WR5
[4] = test system: Methicillin Resistant Staphylococcus aureus (MRSA) and Staphylococcus aureus; type: cell-based
Method: as §1, §2
Identification of Antimicrobial Peptides for Gram-positive Bacteria. In a manner similar to testing against gram-negative bacteria, experiments were carried out to screen the 14 peptides used to identify antimicrobial peptides with significant activity against A. baumanii shown above against 20 different clinical isolates of Methicillin Resistant Staphylococcus aureus (MRSA) and Staphylococcus aureus.

Compound | MIC GM (geometric mean) (Acinetobacter baumannii) [µM] | MIC (Acinetobacter baumannii; 24 h) [µM] | Hydrophobicity (retention time in RP-HPLC) [1] [min] | HC50 at 18 h [2] | PA (dimerization / self-association parameter) [3] | MIC PAO 1 (Pseudomonas aeruginosa; Brain Heart Infusion medium) [µg/mL] | MIC GM (geometric mean of the MIC values) (Pseudomonas aeruginosa; Brain Heart Infusion medium) [µg/mL] | MIC CP 204 (Pseudomonas aeruginosa; Brain Heart Infusion medium) [µg/mL] | MIC M 2 (Pseudomonas aeruginosa; Brain Heart Infusion medium) [µg/mL] | MIC PA 14 (Pseudomonas aeruginosa; Brain Heart Infusion medium) [µg/mL] | MIC PAK (Pseudomonas aeruginosa; Brain Heart Infusion medium) [µg/mL] | MIC WR 5 (Pseudomonas aeruginosa; Brain Heart Infusion medium) [µg/mL] | MIC PAO 1 (Pseudomonas aeruginosa; Mueller Hinton medium) [µg/mL] | MIC GM (geometric mean of the MIC values) (Pseudomonas aeruginosa; Mueller Hinton medium) [µg/mL] | MIC CP 204 (Pseudomonas aeruginosa; Mueller Hinton medium) [µg/mL] | MIC M 2 (Pseudomonas aeruginosa; Mueller Hinton medium) [µg/mL] | MIC PA 14 (Pseudomonas aeruginosa; Mueller Hinton medium) [µg/mL] | MIC PAK (Pseudomonas aeruginosa; Mueller Hinton medium) [µg/mL] | MIC WR 5 (Pseudomonas aeruginosa; Mueller Hinton medium) [µg/mL] | MIC GM (geometric mean) [4] [µM]
CC[C@@H](C)[C@@H](NC(=O)[C@@H](C)NC(=O)[C@@H](CO)NC(=O)[C@@H](CC(C)C)NC(=O)[C@@H](CC(C)C)NC(=O)[C@H](NC(=O)[C@@H](CCCCN)NC(=O)[C@@H](CC(C)C)NC(=O)[C@@H](C)NC(=O)[C@@H](CCCCN)NC(=O)[C@@H](CCCCN)NC(=O)[C@@H](CCCCN)NC(=O)[C@@H](C)NC(=O)[C@@H](CCCCN)NC(=O)[C@@H](CO)NC(=O)[C@@H](Cc1ccccc1)NC(=O)[C@H](NC(=O)[C@@H](CO)NC(=O)[C@@H](CC(C)C)NC(=O)[C@@H](Cc1ccccc1)NC(=O)[C@@H](CO)NC(=O)[C@@H](CO)NC(=O)[C@@H](Cc1c[nH]c2ccccc12)NC(=O)[C@@H](CO)NC(C)=O)[C@H](C)O)[C@H](C)O)C(=O)N[C@H](CO)C(=O)N[C@H](CO)C(N)=O [Peptide D17, Ac-SWSSFLSTFSKAKKKALKTLLSAISS-amide] | 0.7 (≈ 2 µg/mL) | 0.7 (≈ 2 µg/mL) | 98.81 | 62 µg/mL and 21.7 µM | 7.96 | 31.3 (≈ 11 µM) | 35.1 | 62.5 (≈ 21.9 µM) | 31.3 (≈ 11 µM) | 15.6 (≈ 5.46 µM) | 31.3 (≈ 11 µM) | 62.5 (≈ 21.9 µM) | 15.6 (≈ 5.46 µM) | 22.1 | 31.3 (≈ 11 µM) | 31.3 (≈ 11 µM) | 15.6 (≈ 5.46 µM) | 15.6 (≈ 5.46 µM) | 31.3 (≈ 11 µM) | 19.7 (≈ 56.3 µg/mL)
CC[C@@H](C)[C@@H](NC(=O)[C@@H](C)NC(=O)[C@@H](CO)NC(=O)[C@@H](CC(C)C)NC(=O)[C@@H](CC(C)C)NC(=O)[C@H](NC(=O)[C@@H](CCCCN)NC(=O)[C@@H](CC(C)C)NC(=O)[C@@H](C)NC(=O)[C@@H](CCCCN)NC(=O)[C@@H](CCCCN)NC(=O)[C@@H](CCCCN)NC(=O)[C@@H](C)NC(=O)[C@@H](CCCCN)NC(=O)[C@@H](CO)NC(=O)[C@@H](Cc1ccccc1)NC(=O)[C@H](NC(=O)[C@@H](CCCCN)NC(=O)[C@@H](CC(C)C)NC(=O)[C@@H](Cc1ccccc1)NC(=O)[C@@H](CO)NC(=O)[C@@H](CO)NC(=O)[C@@H](Cc1c[nH]c2ccccc12)NC(=O)[C@@H](CO)NC(C)=O)[C@H](C)O)[C@H](C)O)C(=O)N[C@H](CO)C(=O)N[C@H](CO)C(N)=O [Peptide D18, Ac-SWSSFLKTFSKAKKKALKTLLSAISS-amide] | 0.9 (≈ 2.61 µg/mL) |  | 97.87 | 55 µg/mL and 19 µM | 7.21 | 10.4 (≈ 3.59 µM) | 14.7 | 41.7 (≈ 14.4 µM) | 10.4 (≈ 3.59 µM) | 10.4 (≈ 3.59 µM) | 10.4 (≈ 3.59 µM) | 20.8 (≈ 7.17 µM) | 7.8 (≈ 2.69 µM) | 9.8 | 15.6 (≈ 5.38 µM) | 7.8 (≈ 2.69 µM) | 7.8 (≈ 2.69 µM) | 7.8 (≈ 2.69 µM) | 15.6 (≈ 5.38 µM) | 17.1 (≈ 49.6 µg/mL)
CC[C@@H](C)[C@@H](NC(=O)[C@@H](C)NC(=O)[C@@H](CCCCN)NC(=O)[C@@H](CC(C)C)NC(=O)[C@@H](CC(C)C)NC(=O)[C@H](NC(=O)[C@@H](CCCCN)NC(=O)[C@@H](CC(C)C)NC(=O)[C@@H](C)NC(=O)[C@@H](CCCCN)NC(=O)[C@@H](CCCCN)NC(=O)[C@@H](CCCCN)NC(=O)[C@@H](C)NC(=O)[C@@H](CCCCN)NC(=O)[C@@H](CO)NC(=O)[C@@H](Cc1ccccc1)NC(=O)[C@H](NC(=O)[C@@H](CCCCN)NC(=O)[C@@H](CC(C)C)NC(=O)[C@@H](Cc1ccccc1)NC(=O)[C@@H](CO)NC(=O)[C@@H](CO)NC(=O)[C@@H](Cc1c[nH]c2ccccc12)NC(=O)[C@@H](CO)NC(C)=O)[C@H](C)O)[C@H](C)O)C(=O)N[C@H](CO)C(=O)N[C@H](CO)C(N)=O [Peptide D19, Ac-SWSSFLKTFSKAKKKALKTLLKAISS-amide] | 0.8 (≈ 2.35 µg/mL) |  | 97.94 | 36 µg/mL and 12.2 µM | 7.07 | 7.8 (≈ 2.65 µM) | 9.8 | 15.6 (≈ 5.31 µM) | 7.8 (≈ 2.65 µM) | 3.9 (≈ 1.33 µM) | 15.6 (≈ 5.31 µM) | 15.6 (≈ 5.31 µM) | 3.9 (≈ 1.33 µM) | 7.8 | 15.6 (≈ 5.31 µM) | 15.6 (≈ 5.31 µM) | 3.9 (≈ 1.33 µM) | 3.9 (≈ 1.33 µM) | 15.6 (≈ 5.31 µM) | 5.3 (≈ 15.6 µg/mL)
